According to patent US8518931B2, “Compounds and compositions as kinase inhibitors” (IRM LLC, priority 2008, dated 2013):

target: T1, NPM-ALK (Homo sapiens, UniProt Q9UM73); assay: NPM-ALK BaF3 assay (growth inhibition of BaF3-NPM-ALK cells); assay type: cell-based; conditions: human NPM-ALK overexpressing murine BaF3 cells
T1 construct: nucleophosmin (NPM, NPM1; human P06748) fusion partner; expressed in transfected cells; host or cells: murine BaF3 cells (DSMZ), transfected with pCIneo (Promega) coding for NPM-ALK and selected with G418; the other entry of the earlier key: Npm1 (Q61937, Nucleophosmin)
Text: The expression of NPM-ALK may be achieved by transfecting the BaF3 cell line with an expression vector pClneo™ (Promega Corp., Madison Wis., USA) coding for NPM-ALK and subsequent selection of G418 resistant cells. Non-transfected BaF3 cells depend on IL-3 for cell survival. In contrast, NPM-ALK expressing BaF3 cells (named BaF3-NPM-ALK hereinafter) can proliferate in the absence of IL-3 because they obtain proliferative signal through NPM-ALK kinase. Putative inhibitors of the NPM-ALK kinase therefore abolish the growth signal and may result in antiproliferative activity. The antiproliferative activity of putative inhibitors of the NPM-ALK kinase can however be overcome by addition of IL-3, which provides growth signals through an NPM-ALK independent mechanism. An analogous cell system using FLT3 kinase has also been described (see, E Weisberg et al. Cancer Cell; 1, 433-443 (2002)).
The inhibitory activity of the compounds of the invention may be determined as follows. In general, BaF3-NPM-ALK cells (15,000/microtitre plate well) are transferred to 96-well microtitre plates. Test compounds dissolved in dimethyl sulfoxide (DMSO) are added in a series of concentrations (dilution series) in such a manner that the final concentration of DMSO is not greater than 1% (v/v). After the addition, the plates are incubated for two days during which the control cultures without test compound are able to undergo two cell-division cycles. The growth of the BaF3-NPM-ALK cells is measured by means of YOPRO™ staining [T Idziorek et al. J. Immunol. Methods; 185: 249-258 (1995)]: 25 μl of lysis buffer comprising 20 mM sodium citrate, pH 4.0, 26.8 mM sodium chloride, 0.4% NP40, 20 mM EDTA and […] to each well. Cell lysis is completed within 60 min at room temperature and total amount of YOPRO™ bound to DNA is determined by measurement using the Cytofluor II 96-well reader (PerSeptive Biosystems) with the following settings: Excitation (nm) 485/20 and Emission (nm) 530/25.
IC50 values may be determined by a computer-aided system using the formula: IC50=[(ABStest−ABSstart)/(ABScontrol−ABSstart)]×100·(ABS=absorption)
In general, compounds of the invention have IC50 values from 1 nM to 10 μM. In some examples, compounds of the invention have IC50 values from 0.01 μM to 5 μM. In other examples, compounds of the invention have IC50 values from 0.01 μM to 1 μM, or more particularly from 1 nM to 1 μM.
Table 1 describes representative compounds of the invention, prepared following the procedures described above. IC50 values are as measured in an NPM-ALK BaF3 assay.

T1 sequence (Q9UM73 with tags, fused parts or gaps): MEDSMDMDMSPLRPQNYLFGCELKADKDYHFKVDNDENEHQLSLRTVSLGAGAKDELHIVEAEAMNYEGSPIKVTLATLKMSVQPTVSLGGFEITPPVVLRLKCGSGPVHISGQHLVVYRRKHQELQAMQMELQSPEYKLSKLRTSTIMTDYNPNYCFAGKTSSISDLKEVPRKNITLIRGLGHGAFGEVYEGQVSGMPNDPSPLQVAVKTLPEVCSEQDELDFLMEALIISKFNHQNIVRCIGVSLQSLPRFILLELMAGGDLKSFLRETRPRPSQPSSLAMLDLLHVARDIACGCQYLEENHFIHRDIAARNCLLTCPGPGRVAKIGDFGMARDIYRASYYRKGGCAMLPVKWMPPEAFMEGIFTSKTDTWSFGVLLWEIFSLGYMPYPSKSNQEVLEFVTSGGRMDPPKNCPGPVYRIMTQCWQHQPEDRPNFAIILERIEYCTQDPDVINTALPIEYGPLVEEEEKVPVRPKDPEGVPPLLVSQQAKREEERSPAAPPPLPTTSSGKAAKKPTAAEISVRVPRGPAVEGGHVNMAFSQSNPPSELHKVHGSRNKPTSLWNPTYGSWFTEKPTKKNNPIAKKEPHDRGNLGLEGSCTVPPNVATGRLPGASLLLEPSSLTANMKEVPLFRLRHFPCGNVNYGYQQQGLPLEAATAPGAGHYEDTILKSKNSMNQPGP

SMILES | IC50 [nM]
Cc1cc(Nc2nc(Nc3ccccc3S(=O)(=O)C(C)C)n3nccc3n2)c(OC(C)C)cc1C1CCN(C)CC1 [Ex 1, N2-(2-isopropoxy-5-methyl-4-(1-methylpiperidin-4-yl)phenyl)-N4-(2-(isopropylsulfonyl)phenyl)pyrazolo[1,5-a][1,3,5]triazine-2,4-diamine] | 115
COc1cc(C2CCN(C(=O)CN(C)C)CC2)c(C)cc1Nc1nc(Nc2ccccc2S(=O)(=O)C(C)C)n2nccc2n1 [Ex 2] | 11
COc1cc(C2CCN(C)CC2)c(C)cc1Nc1nc(Nc2ccccc2S(=O)(=O)C(C)C)n2nccc2n1 [Ex 3] | 19
COc1cc(C2CCNCC2)c(C)cc1Nc1nc(Nc2ccccc2S(=O)(=O)C(C)C)n2nccc2n1 [Ex 4] | 38
Cc1cc(CN2CCC(c3cc(OC(C)C)c(Nc4nc(Nc5ccccc5S(=O)(=O)C(C)C)n5nccc5n4)cc3C)CC2)[nH]n1 [Ex 5] | 140
Cc1cc(Nc2nc(Nc3ccccc3S(=O)(=O)C(C)C)n3nccc3n2)c(OC(C)C)cc1C1CCN(Cc2cnn(C)c2)CC1 [Ex 6] | 80
COc1cc(C2CCN(CCS(C)(=O)=O)CC2)c(C)cc1Nc1nc(Nc2ccccc2S(=O)(=O)C(C)C)n2nccc2n1 [Ex 7] | 50
COc1cc(C2CCN(CC3CC3)CC2)c(C)cc1Nc1nc(Nc2ccccc2S(=O)(=O)C(C)C)n2nccc2n1 [Ex 8] | 43
COc1cc(C2CCOCC2)c(C)cc1Nc1nc(Nc2ccccc2S(=O)(=O)C(C)C)n2nccc2n1 [Ex 10] | 138
Cc1cc(C2CCNCC2)c(Cl)cc1Nc1nc(Nc2ccccc2S(=O)(=O)C(C)C)n2nccc2n1 [Ex 11] | 1400
CNC(=O)CN1CCC(c2cc(OC)c(Nc3nc(Nc4ccccc4S(=O)(=O)C(C)C)n4nccc4n3)cc2C)CC1 [Ex 12] | 28
COc1cc(C2CCN(CCC(N)=O)CC2)c(C)cc1Nc1nc(Nc2ccccc2S(=O)(=O)C(C)C)n2nccc2n1 [Ex 13] | 15
COc1cc(C2CCN(C(=O)CN3CCCCC3)CC2)c(C)cc1Nc1nc(Nc2ccccc2S(=O)(=O)C(C)C)n2nccc2n1 [Ex 14] | 26
COc1cc(C2CCN(C(=O)CN3CCCC3)CC2)c(C)cc1Nc1nc(Nc2ccccc2S(=O)(=O)C(C)C)n2nccc2n1 [Ex 15] | 31
CNCC(=O)N1CCC(c2cc(OC)c(Nc3nc(Nc4ccccc4S(=O)(=O)C(C)C)n4nccc4n3)cc2C)CC1 [Ex 17] | 22
COc1cc(C2CCN(C(=O)C3(N)CC3)CC2)c(C)cc1Nc1nc(Nc2ccccc2S(=O)(=O)C(C)C)n2nccc2n1 [Ex 18] | 39
CNCCC(=O)N1CCC(c2cc(OC)c(Nc3nc(Nc4ccccc4S(=O)(=O)C(C)C)n4nccc4n3)cc2C)CC1 [Ex 19] | 68
COc1cc(C2CCN(C(=O)CN3CCC3)CC2)c(C)cc1Nc1nc(Nc2ccccc2S(=O)(=O)C(C)C)n2nccc2n1 [Ex 20] | 26
COc1cc(C2CCN(C(=O)CN3C[C@@H](O)[C@H](O)C3)CC2)c(C)cc1Nc1nc(Nc2ccccc2S(=O)(=O)C(C)C)n2nccc2n1 [Ex 21] | 286
CCNC1(C(=O)N2CCC(c3cc(OC)c(Nc4nc(Nc5ccccc5S(=O)(=O)C(C)C)n5nccc5n4)cc3C)CC2)CC1 [Ex 22] | 23
COc1cc(C2CCN(CC(N)=O)CC2)c(C)cc1Nc1nc(Nc2ccccc2S(=O)(=O)C(C)C)n2nccc2n1 [Ex 23] | 16
CN[C@@H](C)C(=O)N1CCC(c2cc(OC)c(Nc3nc(Nc4ccccc4S(=O)(=O)C(C)C)n4nccc4n3)cc2C)CC1 [Ex 24] | 21
COc1cc(C2CCN(C(=O)CCN(C)C)CC2)c(C)cc1Nc1nc(Nc2ccccc2S(=O)(=O)C(C)C)n2nccc2n1 [Ex 25] | 22
CNC1(C(=O)N2CCC(c3cc(OC)c(Nc4nc(Nc5ccccc5S(=O)(=O)C(C)C)n5nccc5n4)cc3C)CC2)CC1 [Ex 26] | 25
CNC(C)(C)C(=O)N1CCC(c2cc(OC)c(Nc3nc(Nc4ccccc4S(=O)(=O)C(C)C)n4nccc4n3)cc2C)CC1 [Ex 27] | 44
COc1cc(C2CCN(C(=O)C3CCCCN3)CC2)c(C)cc1Nc1nc(Nc2ccccc2S(=O)(=O)C(C)C)n2nccc2n1 (centres unmarked) [Ex 29] | 54
